# Experiments:
# position 37 of GFP = test: Fidelity of unnatural amino acid incorporation by nano-RP LC/MS/MS and ESI TOF-MS; conditions: for wild type peptide signals in tandem MS of mutant GFP: nano-RP LC/MS/MS of tryptic fragments, T-REx CHO cells
# Description: To further characterize GFP-pMpa, the mutant protein was expressed in T-REx™ CHO cells transiently transfected with both pSWAN-pMpaRS and pSWAN-GFP37TAG. The protein was purified using an anti-myc antibody agarose column and then separated by SDS-PAGE. The GFP-pMpa band from the SDS-PAGE gel was digested with trypsin and analyzed by nanoscale reversed-phase liquid chromatography/mass spectrometry/mass spectrometry (nano-RP LC/MS/MS). In parallel, wild type GFP was purified from cells transfected with pcDNA4-GFP and subjected to the same analysis.
# Proteolysis of affinity purified proteins (performed for wild-type and pBpa samples) was carried out by overnight incubation of proteins at 37° C. with sequencing-grade modified trypsin (Promega) using a substrate/enzyme ratio of 10:1 (wt/wt) based on the estimated protein concentration in 100 mM triethylammonium bicarbonate buffer (pH 8.5). In-gel digestions (performed for pMpa, pAzpa, pApa, and pPpa samples) were performed according to a modified EMBL procedure (see the website for EMBL, Heidelberg, Germany, Bioanalytical Research Group). Briefly, gel slices were excised to approximately 1 mm×1 mm cubes, washed for 5 minutes with water, 15 minutes with acetonitrile, and dried in a vacuum centrifuge before being rehydrated at 0° C. for 30 minutes with 12.5 ng/μl of sequencing-grade modified trypsin in 50 mM triethylammonium bicarbonate buffer (pH 8.5). Excess buffer was removed and 20 μl of 50 mM triethylammonium bicarbonate buffer (pH 8.5) was added to the gel slices before incubating at 37° C. overnight. Peptides were extracted from the gel slices as described in the protocol.
# Nano-RP LC/MS/MS was performed with an HPLC pump, autosampler (Agilent Technologies, Palo Alto, Calif.), and an LTQ Orbitrap hybrid mass spectrometer (ThermoElectron, San Jose, Calif.). Tryptic digests were loaded with a pressure bomb onto a 75 μm i.d. precolumn packed with 4 cm of 5-μm Monitor C18 particles (Column Engineering, Ontario, Calif.) at a flow rate of approximately 2 μl/min. The precolumn was then connected to the HPLC pump and after several minutes of washing with solvent A the analytical column with integrated emitter tip (360 μm O.D.×75 μm i.d; 10 cm of 5 μM C18, ˜5-μm tip) was connected in series. The chromatographic profile was from 100% solvent A (0.1% aqueous acetic acid) to 50% solvent B (0.1% acetic acid in acetonitrile) in 40 min; the flow rate through the analytical column was ca. 100 nl/min.
# For data-dependent experiments, the mass spectrometer was programmed to first record a high-resolution Orbitrap scan then a full-scan ion trap spectrum (m/z 500-2,000). This was followed by 10 data-dependent MS/MS scans (relative collision energy=35%; 3-Da isolation window) triggered of the ion-trap scan and finally two targeted MS/MS scans. The first targeted MS/MS scan was set to isolate and fragment the doubly charged precursor ion of the predicted unnatural amino acid modified peptide
# at m/z 752.3. The raw data were searched against the MSDB database using MASCOT (Matrixscience, London, UK) for protein identification and to find the scans containing the target peptides with the unnatural amino acids as variable modification. To estimate fidelity at Y*37 of GFP-pMpa, single ion chromatograms (doubly charged precursor ions at m/z 752.3 for the wt and 759.3 for pMpa) and selected ion chromatograms (y9, y11, and y12) were integrated using the Xcalibur software package (ThermoElectron, San Jose, Calif.).
# Intact protein mass spectra were acquired on an automated LC/MS system (Waters, Milford, Mass.) consisting of a capillary LC with auto-sampler and a QTOF2 mass spectrometer. GFP-pMpa (0.1 mg/ml) was loaded onto a reversed-phase protein Captrap (Michrom Bioresources, Auburn, Calif.) for desalting with 0.1% acetic acid in water and eluted with 80% acetonitrile/0.1% acetic acid at 5 μl/min into the ESI source of the mass spectrometer. […]
# [1] = system: amber codon in GFP37TAG in T-REx CHO cells; test: Amber suppression of GFP37TAG by BstRNACUA^Tyr/EcTyrRS variants, Western blot of full-length GFP; type: cell-based, Chinese hamster; conditions: 8 mM in media, 24 hours
# Description: (§1) The ability of the six EcTyrRS variants together with BstRNACUA^Tyr to suppress the amber codon in GFP37TAG was then tested in the presence and absence of unnatural amino acids in the growth media. Transient transfection of cells with plasmids was carried out as described for wild type EcTyrRS. Six hours after transfection, the media were replaced by the fresh media containing 1 μg/ml tetracycline and supplemented with the corresponding unnatural amino acid (pMpa, 10 mM; pApa, 10 mM; pBpa, 1 mM; plpa, 8 mM; pAzpa, 5 mM; or pPpa, 1 mM). Cells were then grown 24 hours for T-REx™ CHO cell lines and 48 hours for T-REx™ 293 cell lines before harvesting. In both T-REx™ CHO and 293 cells, the expression of full length GFP37TAG was dependent upon the presence of unnatural amino acids in the growth media as indicated in FIG. 2 and FIG. 3. […]
# (§2) For Western blot analysis, harvested cells were lysed in RIPA buffer (Upstate Biotechnology/Millipore) with a 1:100 dilution of protease inhibitor cocktail (Sigma). […] Chemiluminescence was then detected with PIERCE ECL Western Blotting substrate. For T-REx™ 293 cells, the membranes were probed with anti-His-HRP (Invitrogen™; 1:5000 dilution) and then detected with PIERCE ECL Western Blotting substrate.
# [2] = system: amber codon in GFP37TAG in T-REx 293 cells; test: as above; type: cell-based, human; conditions: 8 mM in media, 48 hours
# Description: as §1, §2
# T-REx 293 cells = test: Cellular toxicity of the unnatural amino acid in growth media; type: cell-based, human; conditions: 8 mM in media
smiles,measurement,setting,value
"CC(=O)c1ccc(C[C@H](N)C(=O)O)cc1 [pApa, p-acetyl-L-phenylalanine]",wild type peptide signals in tandem MS of mutant GFP,position 37 of GFP,No wild type signals could be detected
"[N-]=[N+]=Nc1ccc(C[C@H](N)C(=O)O)cc1 [pAzpa, p-azido-L-phenylalanine]",stability of the azido amino acid in mutant GFP seen by tandem MS,position 37 of GFP; mutant GFP containing pAzpa,Most of pAzpa decays to pAmpa
same,wild type peptide signals in tandem MS of mutant GFP,position 37 of GFP,No wild type signals could be detected
"N[C@@H](Cc1ccc(C(=O)c2ccccc2)cc1)C(=O)O [pBpa, p-benzoyl-L-phenylalanine]",wild type peptide signals in tandem MS of mutant GFP,position 37 of GFP,trace amount of the wild type peptide
"COc1ccc(C[C@H](N)C(=O)O)cc1 [pMpa, p-methoxy-L-phenylalanine]",wild type GFP signals in intact protein ESI TOF-MS,position 37 of GFP; affinity purified GFP-pMpa,No wild type GFP signals
"C#CCOc1ccc(C[C@H](N)C(=O)O)cc1 [pPpa, p-propargyloxyphenylalanine]",wild type peptide signals in tandem MS of mutant GFP,position 37 of GFP,No wild type signals could be detected
"N[C@@H](Cc1ccc(I)cc1)C(=O)O [plpa, p-iodo-L-phenylalanine]",expression level of GFP containing the unnatural amino acid,[1],low expression level
same,expression of GFP containing the unnatural amino acid,[2],no GFP expression
same,time until cells die (cellular toxicity),T-REx 293 cells,6 h

# — patent US9624485B2, “Genetic incorporation of unnatural amino acids into proteins in mammalian cells” (The Scripps Research Institute, priority 2006, dated 2017)
